# Columns and labels:
# [1] = test system: Plasmodium cynomolgi; test: Antimalarial activity against Plasmodium cynomolgi M infected in rhesus monkey administered as po qd for 7 days; type: functional; details: in Macaca mulatta, 168 h
# [2] = test system: Plasmodium yoelii; test: Antimalarial activity against Plasmodium yoelii infected in mouse assessed as protection against parasitic infection at 160 mg/kg, po; type: functional
# [3] = test system: Plasmodium yoelii; test: Antimalarial activity against liver stages of Plasmodium yoelii 265 BY infected in Swiss mouse after 48 hrs by fluorescence microscopy; type: functional, organism-based
# [4] = test system: Plasmodium berghei; test: Antimalarial activity against liver stages of Plasmodium berghei assessed as inhibition of cytochrome bc1 complex; type: functional, organism-based
# [5] = test system: Plasmodium yoelii; test: Antimalarial activity against liver stages of Plasmodium yoelii; type: functional, organism-based
# [6] = test system: Plasmodium falciparum; test: Antimalarial activity against liver stages of Plasmodium falciparum NF54 infected in human HepG2 cells after 6 days by fluorescence microscopy; type: functional, organism-based; details: NF54, HepG2, 144 h
# [7] = test system: Plasmodium berghei; test: Antimalarial activity against liver stages of Plasmodium berghei; type: functional, organism-based
# [8] = test system: Plasmodium berghei; test: Antimalarial activity against liver stages of Plasmodium berghei in human HepG2 cells assessed as growth inhibition at 10 ug/mL; type: functional; details: read-out: GI
# [9] = test system: Plasmodium vivax; test: Antimalarial activity against Plasmodium vivax assessed as effect on cure rate after 28 days; type: functional
# [10] = test system: Plasmodium yoelii; test: Antimalarial activity against liver stages of Plasmodium yoelii after 96 hrs; type: functional, organism-based; details: Plasmodium yoelii, 96 h
# [11] = test system: Plasmodium falciparum; test: Antimalarial activity against liver stages of Plasmodium falciparum after 96 hrs; type: functional, organism-based
# [12] = test system: Plasmodium yoelii yoelii; test: Antimalarial activity against liver stages of Plasmodium yoelii yoelii; type: functional, organism-based
# [13] = test system: Plasmodium yoelii; test: Antimalarial activity against Plasmodium yoelii infected in CD-1 mouse assessed as efficacy at 160 mg/kg, ip; type: functional; details: route intraperitoneal
# [14] = test system: Plasmodium yoelii; test: Antimalarial activity against Plasmodium yoelii infected in CD-1 mouse assessed as efficacy at 40 mg/kg, ip; type: functional; details: route intraperitoneal
# [15] = test system: Plasmodium yoelii; test: Antimalarial activity against liver stages of Plasmodium yoelii 17XNL expressing GFP infected in human HepG2 cells transfected with CD81 assessed as growth inhibition of hepatic parasite after 40 hrs by flow cytometry; type: functional, organism-based
# [16] = Plasmodium yoelii, 265 BY, 48 h
smiles,measurement,setting,value
CCC(CCCN)Nc1cc(OC)cc2c(C)ccnc12 (configuration not stated),ED50,[1],0.074 mg/kg
COc1cc(NC(C)CCCN)c2ncccc2c1Oc1cccc(C(F)(F)F)c1 (configuration not stated),ED50,[1],0.25 mg/kg
COc1cc(NCCCCC(C)N)c2nccc(C)c2c1 (configuration not stated),ED50,[1],0.12 mg/kg
COc1cc(NC(C)CCCN)c2nc(C)ccc2c1Oc1ccc(F)cc1 (configuration not stated),ED50,[1],0.22 mg/kg
CC(C)N1C(=O)C(=O)N=C1N/C(=N\C(=O)OC(C)(C)C)Nc1ccc(Cl)c(Cl)c1,Activity,[2],100%
CCOC(=O)/N=C(\NC1=NC(=O)C(=O)N1C(C)C)Nc1ccc(Cl)c(Cl)c1,Activity,[2],100%
COc1cc([C@H](O)[C@@H](C)Oc2c(OC)cccc2OC)cc(OC)c1OC,IC50,[3]; [16],2.52 µM
CCCCCC[C@@H](C)CC1=C(O)C(=O)c2ccccc2C1=O,IC50,[4],0.0962 µM
C[C@H](CCCCCC(F)(F)F)CC1=C(O)C(=O)c2ccccc2C1=O,IC50,[4],0.0171 µM
CCCCCC[C@@H](C)CC1=C(O)C(=O)c2c(C)cccc2C1=O,IC50,[4],0.246 µM
Cc1cccc2c1C(=O)C(O)=C(C[C@H](C)CCCCCC(F)(F)F)C2=O,IC50,[4],4.45 µM
CN1CNC(=O)N[C@H](Cc2ccccc2)C1=O,IC50,[5],> 200 µM
CN1CN(Cc2ccccc2)C(=O)N[C@@H](Cc2ccccc2)C1=O,IC50,[5],> 200 µM
COc1cc([C@H](O)[C@H](C)Oc2c(OC)cccc2OC)cc(OC)c1OC,IC50,[3]; [16],28.6 µM
COc1cc([C@H](O)[C@H](C)Oc2c(OC)cc(C)cc2OC)cc(OC)c1OC,IC50,[3]; [16],50.1 µM
COc1cc([C@H](O)[C@@H](C)Oc2c(OC)cc(C)cc2OC)cc(OC)c1OC,IC50,[3]; [16],0.0045 µM
same,IC50,[6],0.38 µM
COc1cc([C@H](O)[C@H](C)Oc2c(OC)cc(-c3ccccc3)cc2OC)cc(OC)c1OC,IC50,[3]; [16],3.54 µM
same,IC50,[6],0.02 µM
COc1cc([C@H](O)[C@@H](C)Oc2c(OC)cc(-c3ccccc3)cc2OC)cc(OC)c1OC,IC50,[3]; [16],3.61 µM
same,IC50,[6],0.007 µM
COc1cc(NC(C)CCCNCc2ccc(CO[C@H]3O[C@@H]4O[C@@]5(C)CC[C@H]6[C@H](C)CCC([C@H]3C)[C@@]46OO5)cc2)c2ncccc2c1 (some centres not stated),IC50,[7],0.155 µM
COc1cc(NCCCC(C)N)c2nccc(C)c2c1 (configuration not stated),ED50,[1],0.11 mg/kg
COc1cc(NCCC(C)N)c2nccc(C)c2c1OC (configuration not stated),ED50,[1],0.12 mg/kg
COc1cc(NCCCC(C)N)c2nc(C)ccc2c1 (configuration not stated),ED50,[1],0.21 mg/kg
CCN(CC)CCCCC(C)Nc1cc(OC)cc2c(C)ccnc12 (configuration not stated),ED50,[1],0.23 mg/kg
COc1cc(NC(C)CCCN)c2nc(C)ccc2c1F (configuration not stated),ED50,[1],0.21 mg/kg
COc1cc(NC(C)CCCN)c2nc(C)ccc2c1Oc1ccc(Cl)cc1 (configuration not stated),ED50,[1],0.19 mg/kg
COc1cc(NC(C)CCCN)c2nc(OCc3ccc(F)cc3)ccc2c1 (configuration not stated),ED50,[1],0.35 mg/kg
COc1cc(NC(C)CCCN)c2nc(OCc3ccc(C(F)(F)F)cc3)ccc2c1 (configuration not stated),ED50,[1],0.5 mg/kg
COc1cc(NC(C)CCCN)c2nc(N)ccc2c1 (configuration not stated),ED50,[1],0.36 mg/kg
CCC(N)CCCNc1cc(OC)cc2c(C)ccnc12 (configuration not stated),ED50,[1],0.48 mg/kg
COc1cc(NCCCCCNC(C)C)c2nccc(C)c2c1,ED50,[1],0.5 mg/kg
COc1cc(NC(C)CCCNC(C)C)c2nccc(C)c2c1 (configuration not stated),ED50,[1],0.32 mg/kg
COc1cc(NC(C)CCCCNC(C)C)c2nccc(C)c2c1 (configuration not stated),ED50,[1],0.35 mg/kg
CCN(CC)CCCNc1cc(OC)cc2c(C)ccnc12,ED50,[1],0.51 mg/kg
CCc1ccnc2c(NC(C)CCCN)cc(OC)cc12 (configuration not stated),ED50,[1],0.45 mg/kg
C=Cc1ccnc2c(NC(C)CCCN)cc(OC)cc12 (configuration not stated),ED50,[1],0.5 mg/kg
COc1cc(NC(C)CCCN)c2ncccc2c1OC (configuration not stated),ED50,[1],0.44 mg/kg
COc1cc(NCCCC(C)N)c2ncccc2c1Oc1cccc(C(F)(F)F)c1 (configuration not stated),ED50,[1],0.5 mg/kg
COc1cc(NC(C)CCCN)c2ncccc2c1C(=O)C(F)(F)F (configuration not stated),ED50,[1],0.44 mg/kg
COc1cc(NC(C)CCCN)c2nc(C)cc(C)c2c1 (configuration not stated),ED50,[1],0.36 mg/kg
CCN(CC)CCCNc1cc(OC)cc2c(C)cc(C)nc12,ED50,[1],0.36 mg/kg
COc1cc(NC(C)CCCN)c2nc(C)ccc2c1Oc1cccc(C(F)(F)F)c1 (configuration not stated),ED50,[1],0.36 mg/kg
COc1cc(NC(C)CCCN)c2nccc(C)c2c1F (configuration not stated),ED50,[1],0.36 mg/kg
COc1c(-c2c(C)cc(OC)c3c(O)cccc23)ccc2c1[C@@H](C)N[C@H](C)C2,inhibition of growth at 10 µg/mL,[8],48.8%
COc1ccc(-c2c(C)cc(OC)c3c(O)cccc23)c2c1[C@@H](C)N(C=O)[C@H](C)C2,inhibition of growth at 10 µg/mL,[8],98.3%
COc1cc(C)c(-c2ccc(OC(=O)c3ccccc3)c3c2C[C@@H](C)N(C=O)[C@@H]3C)c2cccc(O)c12,inhibition of growth at 10 µg/mL,[8],52.7%
COc1cc(NC(C)CCCN)c2nc(C)ccc2c1 (configuration not stated),ED50,[1],0.38 mg/kg
COc1cc(NC(C)CCCN)c2nccc(C)c2c1 (configuration not stated),ED50,[1],0.2 mg/kg
COc1cc(NC(C)CCCN)c2nccc(C)c2c1Oc1cccc(C(F)(F)F)c1 (configuration not stated),ED50,[1],0.11 mg/kg
COc1cc(NC(C)CCCN)c2ncccc2c1Oc1ccc(F)cc1 (configuration not stated),ED50,[1],0.23 mg/kg
CCOc1c(OC)cc(NC(C)CCCN)c2ncccc12 (configuration not stated),ED50,[1],0.18 mg/kg
COc1cc(NC(C)CCCN)c2nccc(C)c2c1OC (configuration not stated),ED50,[1],0.098 mg/kg
COc1cccc(OC)c1OC(C)[C@@H](O)c1ccc2c(c1)OC(F)(F)O2 (mixture of isomers; 143),IC50,[3]; [16],20.1 µM
COc1cccc(OC)c1OC(C)[C@@H](O)c1ccc2c(c1)OC(F)(F)O2 (mixture of isomers; 144),IC50,[3],20.2 µM
COc1cc(C)cc(OC)c1OC(C)[C@@H](O)c1ccc2c(c1)OC(F)(F)O2 (mixture of isomers; 145),IC50,[3],19 µM
COc1cc(C)cc(OC)c1OC(C)[C@@H](O)c1ccc2c(c1)OC(F)(F)O2 (mixture of isomers; 146),IC50,[3],5.62 µM
COc1c2c(cc(O)c1-c1c(C)cc(OC)c3c(OC)cccc13)C[C@@H](C)N=C2C [ANCISTROBARTERINE A],inhibition of growth at 10 µg/mL,[8],51.6%
CCC[C@@H]1C[C@@H](C(=O)N[C@@H]([C@H]2O[C@H](SC)[C@H](O)[C@@H](O)[C@H]2O)[C@H](C)Cl)N(C)C1 [CLINDAMYCIN],Activity,[9],56%
CC(=O)N(O)CCCCCNC(=O)CCC(=O)N(O)CCCCCNC(=O)CCC(=O)N(O)CCCCCN [DEFEROXAMINE],IC50,[10],20 µM
same,IC50,[11],3.4 µM
CC(C)Nc1cccnc1N1CCN(C(=O)c2cc3cc(NS(C)(=O)=O)ccc3[nH]2)CC1 [DELAVIRDINE],IC50,[12],0.000846 µM
C[C@]1(C(=O)O)CSC(c2ncccc2O)=N1 [DESFERRITHIOCIN],IC50,[10],10 µM
same,IC50,[11],2.9 µM
COc1c(C)nc(C)c2c(OC)c(-c3c(C)cc(OC)c4c(OC)cccc34)ccc12 [DIONCOPHYLLACINE A],inhibition of growth at 10 µg/mL,[8],41.9%
COc1cccc2c(-c3ccc4c(c3O)[C@@H](C)N[C@H](C)C4)c(C)cc(OC)c12 [DIONCOPHYLLINE A],inhibition of growth at 10 µg/mL,[8],67.5%
CC(CCc1ccc(O)cc1)NCCc1ccc(O)c(O)c1 (configuration not stated) [DOBUTAMINE],IC50,[12],0.0037 µM
C[C@H]1c2cccc(O)c2C(=O)C2=C(O)[C@]3(O)C(=O)C(C(N)=O)=C(O)[C@@H](N(C)C)[C@@H]3[C@@H](O)[C@@H]21.O [DOXYCYCLINE],Efficacy,[13],100%
same,Efficacy,[14],40%
same,Activity,[9],56%
CC[C@H](C)[C@H](NC(=O)[C@H]([C@@H](C)CC)N(C)C(C)=O)C(=O)N[C@H](C(=O)N[C@@H](CC(C)C)C(=O)[C@@]1(C)CO1)[C@@H](C)O [EPOXOMYCIN],IC50,[12],3.95 µM
Oc1c(Cl)cc(Cl)c(Cl)c1Cc1c(O)c(Cl)cc(Cl)c1Cl [HEXACHLOROPHENE],IC50,[15],4 µM
C=CC(C)(C)c1cc(/C=C/C(=O)c2ccc(O)cc2)c(OC)cc1O [LICOAGROCHACONE A],IC50,[12],0.000927 µM
COCC(=O)O[C@]1(CCN(C)CCCc2nc3ccccc3[nH]2)CCc2cc(F)ccc2[C@@H]1C(C)C [MIBEFRADIL],IC50,[12],0.000873 µM
COc1cc(NC(C)CCCN)c2ncccc2c1 (configuration not stated) [PRIMAQUINE],ED50,[1],0.38 mg/kg
same,IC50,[7],13 µM
CO[C@H]1/C=C/O[C@@]2(C)Oc3c(C)c(O)c4c(O)c(c(/C=N/N5CCN(C)CC5)c(O)c4c3C2=O)NC(=O)/C(C)=C\C=C\[C@H](C)[C@H](O)[C@@H](C)[C@@H](O)[C@@H](C)[C@H](OC(C)=O)[C@@H]1C [RIFAMPIN],IC50,[15],22.2 µM
CC(N)C12CC3CC(CC(C3)C1)C2 (configuration not stated) [RIMANTADINE],IC50,[12],0.0356 µM
CCN(CC)CCCCCCNc1cc(OC)cc2c(C)ccnc12 [SITAMAQUINE],ED50,[1],0.35 mg/kg
CN(C)[C@@H]1C(O)=C(C(N)=O)C(=O)[C@@]2(O)C(O)=C3C(=O)c4c(O)cccc4[C@@](C)(O)[C@H]3C[C@@H]12 [TETRACYCLINE],Activity,[9],56%
CC[C@]1(O)C[C@@H]2CN(CCc3c([nH]c4ccccc34)[C@@](C(=O)OC)(c3cc4c(cc3OC)N(C)[C@H]3[C@@](O)(C(=O)OC)[C@H](OC(C)=O)[C@]5(CC)C=CCN6CC[C@]43[C@@H]65)C2)C1 [VINBLASTINE],IC50,[12],7.95 µM
